Test results taken from patent publication US7737126B2, “Purine derivative” (Glaxo Group Limited, priority 2004, dated 2010).

Tests used:
HSA = target: T1, HSA (Homo sapiens, UniProt P02768); test: HSA binding by immobilised HSA HPLC column; assay type: in vitro ADME; conditions: for logK measured / % HSA measured: HSA column, typical data; for logK measured: derived from the calibration curve
T1 construct: purchased Chromtech (Cheshire, UK)
Procedure: Instrument: Agilent HP1100 HPLC instruments were used throughout.
HPLC columns: Chromtech Immobilised HSA HPLC column 50×3 mm was purchased from Chromtech (Cheshire, UK).
Mobile phase and detection: The mobile phase A was 50 mM pH 7.4 ammonium acetate solution, while mobile phase B was 2-Propanol (HPLC grade, Runcorn, UK). The mobile phase flow rate was 1.8 ml/min. The column temperature was kept at 30° C. The gradient profile and run time were the same with each column, the linear gradient from 0 to 30% 2-propanol was applied from 0 to 3 minutes. From 3 to 10 minutes, the mobile phase composition was constant 30% 2-propanol and 70% 50-mM ammonium acetate. […] Each separation was stopped after 15 minutes.
Detection: Chromatograms were recorded at 230 and 254 nm by a diode array UV absorption detector at room temperature.

plasma protein = test: Literature % plasma protein binding of calibration compounds; conditions: linear conversion of literature % PPB
Procedure: Calibration of the protein columns: The column performance check and the calibration have been performed before the analysis of every 96 well plate. The compounds used for the column calibrations were dissolved separately in 0.5 mg/ml concentration in 50% 2-propanol and 50% pH 7.4 ammonium acetate solution mixtures.
The literature % PPB (bound in plasma) values were converted to the linear free energy related logk values (logarithm of apparent affinity constant) using the following equation.

[1] = target: T2, human adenosine A1 receptor (Homo sapiens, UniProt P30542); test: Agonist activity against adenosine A1 receptor (CHO or yeast assay); assay type: cell-based; conditions: A2A over A1
T2 construct: expressed in transfected cells; host or cells: CHO cells or yeast cells
T2 sequence (P30542 1-326): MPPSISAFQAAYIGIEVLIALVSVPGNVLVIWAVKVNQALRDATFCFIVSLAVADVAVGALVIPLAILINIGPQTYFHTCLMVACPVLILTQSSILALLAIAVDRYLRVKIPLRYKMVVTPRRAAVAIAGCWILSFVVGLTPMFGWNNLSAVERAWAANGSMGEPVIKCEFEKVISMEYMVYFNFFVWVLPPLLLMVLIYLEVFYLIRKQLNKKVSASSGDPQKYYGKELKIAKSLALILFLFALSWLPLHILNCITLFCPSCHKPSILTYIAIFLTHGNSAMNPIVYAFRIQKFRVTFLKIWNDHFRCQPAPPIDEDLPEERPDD
Procedure: (§1) 1) In Vitro: Agonist Activity Against Adenosine A1, A2A, A2B and A3 Receptors.
(§2) The agonist potency and selectivity of compounds against human adenosine receptors is determined using Chinese hamster ovary (CHO) cells or yeast cells transfected with the gene for the relevant receptor.
(§3) Two methods may be used in the CHO cells. (i) For the SPAP assay, cells are also transfected with cyclic AMP (cAMP) response elements promoting the gene for secreted placental alkaline phosphatase (SPAP). Changes in cAMP are measured as changes in the levels of SPAP. (ii) The DiscoveRx assay is an enzyme complementation assay that involves two fragments of β-galactosidase, enzyme acceptor (EA) and enzyme donor (ED). […] For both methods the effect of test compounds is determined by their effects on basal levels of cAMP (A2A and A2B) or on forskolin enhanced cAMP (A1 and A3).
(§4) For the yeast assay, receptor stimulation causes activation of a reporter gene, namely FUS1-HIS3, resulting in histidine production which is essential for cell growth. […] This response is measured from the production of the exoglucanase, an enzyme secreted constitutively by yeast cells.
(§5) In all of the in vitro assays the activity of test compounds is expressed as a ratio to that of the non-selective adenosine receptor agonist, N-ethyl carboxamide adenosine (NECA).

[2] = target: T3, human adenosine A3 receptor (Homo sapiens, UniProt P0DMS8); test: Agonist activity against adenosine A3 receptor (CHO or yeast assay); assay type: cell-based; conditions: A2A over A3
T3 construct: expressed in transfected cells; host or cells: CHO cells or yeast cells
T3 sequence (P0DMS8 1-318): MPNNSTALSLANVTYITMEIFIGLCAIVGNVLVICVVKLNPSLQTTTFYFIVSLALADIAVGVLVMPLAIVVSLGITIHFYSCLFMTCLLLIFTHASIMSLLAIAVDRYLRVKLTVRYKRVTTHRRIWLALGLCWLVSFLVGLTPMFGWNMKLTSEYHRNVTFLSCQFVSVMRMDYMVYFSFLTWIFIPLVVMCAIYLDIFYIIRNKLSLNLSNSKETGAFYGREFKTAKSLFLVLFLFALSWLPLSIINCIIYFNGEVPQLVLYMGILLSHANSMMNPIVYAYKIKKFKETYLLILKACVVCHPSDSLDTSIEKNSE
Procedure: as §1, §2, §3, §4, §5

[3] = target: T4, human adenosine A2B receptor (Homo sapiens, UniProt P29275); test: Agonist activity against adenosine A2B receptor (CHO or yeast assay); assay type: cell-based; conditions: A2A over A2B
T4 construct: expressed in transfected cells; host or cells: CHO cells or yeast cells
T4 sequence (P29275 1-332): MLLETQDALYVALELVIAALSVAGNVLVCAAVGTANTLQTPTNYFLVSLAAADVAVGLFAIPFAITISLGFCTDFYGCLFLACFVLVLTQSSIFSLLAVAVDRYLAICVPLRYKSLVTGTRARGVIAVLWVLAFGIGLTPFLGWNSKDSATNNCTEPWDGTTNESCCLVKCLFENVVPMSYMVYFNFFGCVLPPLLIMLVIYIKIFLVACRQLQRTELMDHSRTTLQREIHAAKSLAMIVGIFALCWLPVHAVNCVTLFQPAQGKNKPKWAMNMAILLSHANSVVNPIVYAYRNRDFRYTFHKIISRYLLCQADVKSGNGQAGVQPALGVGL
Procedure: as §1, §2, §3, §4, §5

[4] = Cardiovascular model (therapeutic index); assay type: in vivo, rat; conditions: anaesthetised male Wistar rats, administered into the trachea
Procedure: 3) Therapeutic Index (TI) Cardiovascular Model: Male Wistar rats were anaesthetised with chloralose/pentobarbitone and the jugular vein, left carotid artery and trachea were cannulated. The arterial cannula was connected to a transducer for the continuous measurement of blood pressure and heart rate. Compound (or vehicle) was administered into the trachea in a 100 ul volume, and the dose of test compound giving a 20% increase in blood pressure and heart rate (ED20) was determined. The TI for a test compound is calculated as the ratio of the ED20 in the cardiovascular model compared with the ED50 in the LPS model.

neutrophil accumulation = test: In vivo anti-inflammatory LPS model; set-up: species or system rat; conditions: male CD albino rats, intratracheal, dose of 30 μg/kg or less, lung lavage 4 h after LPS challenge
Procedure: In Vivo Anti-Inflammatory Agonist Activity LPS Model: Test compound was administered to male CD albino rats prior to exposure to LPS. Compound (or vehicle) was injected in a 200 ul volume into the trachea , via a cannula placed trans-orally, whilst the animals were under isoflurane anaesthesia. After a recovery period of 30 min, rats were placed in a chamber and exposed to an aerosol of E. Coli-derived LPS for 15 min. Four hours after LPS challenge the rats were killed, the lungs lavaged, and both total and differential cell counts determined.

T1 sequence (P02768 25-609): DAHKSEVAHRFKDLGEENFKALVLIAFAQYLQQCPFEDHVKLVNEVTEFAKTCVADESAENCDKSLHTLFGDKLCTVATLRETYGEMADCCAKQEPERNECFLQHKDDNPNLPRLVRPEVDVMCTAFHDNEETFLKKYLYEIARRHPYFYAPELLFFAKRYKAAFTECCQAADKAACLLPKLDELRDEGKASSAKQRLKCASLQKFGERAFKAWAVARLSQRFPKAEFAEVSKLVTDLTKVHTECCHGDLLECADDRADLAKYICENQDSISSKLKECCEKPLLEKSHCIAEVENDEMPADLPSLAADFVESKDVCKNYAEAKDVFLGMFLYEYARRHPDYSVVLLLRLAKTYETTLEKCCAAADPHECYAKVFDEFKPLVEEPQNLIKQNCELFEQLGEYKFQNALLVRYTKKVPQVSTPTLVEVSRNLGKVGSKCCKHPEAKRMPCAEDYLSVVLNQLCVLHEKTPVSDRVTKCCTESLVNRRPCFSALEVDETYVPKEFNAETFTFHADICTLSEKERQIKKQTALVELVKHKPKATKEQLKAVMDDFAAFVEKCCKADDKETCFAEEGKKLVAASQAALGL

Structure (SMILES)	logK measured (HSA)	% HSA measured (HSA) [%]	lit logK (plasma protein)	also measured
CCCC1O[C@@H]2C[C@H]3[C@@H]4CCC5=CC(=O)C=C[C@]5(C)[C@H]4[C@@H](O)C[C@]3(C)[C@]2(C(=O)CO)O1 (stereo partly drawn) [Budesonide]	0.70	84.2	0.83	–
O=C(O)Cc1ccccc1Nc1c(Cl)cccc1Cl [Diclofenac]	–	–	1.92	–
NC(=O)N1c2ccccc2C=Cc2ccccc21 [Carbamazepine]	0.50	76.8	0.46	–
CN1C(C(=O)Nc2ccccn2)=C(O)c2ccccc2S1(=O)=O [Piroxicam]	1.10	93.6	1.16	–
CNC(=C[N+](=O)[O-])NCCSCc1csc(CN(C)C)n1 [Nizatidine]	−0.35	31.1	−0.28	–
COC(=O)C1=C(C)NC(C)=C(C(=O)OCCN(C)Cc2ccccc2)C1c1cccc([N+](=O)[O-])c1 (stereo not drawn) [Nicardipine]	1.38	97.0	–	–
CCn1nnc([C@H]2O[C@@H](n3cnc4c(N[C@H]5CC[C@H](Nc6nc(NCCc7cn(C)cn7)nc7c6ncn7[C@@H]6O[C@H](c7nnn(CC)n7)[C@@H](O)[C@H]6O)CC5)nc(NCCc5cn(C)cn5)nc43)[C@H](O)[C@@H]2O)n1.O=CO [Formic acid—(2R,3R,4S,5R,2′R,3′R,4′S,5′R)-2,2′-{trans-1,4-cyclohexanediylbis[imino(2-{[2-(1-methyl-1H-imidazol-4-yl)ethyl]amino}-9H-purine-6,9-diyl)]}bis[5-(2-ethyl-2H-tetrazol-5-yl)tetrahydro-3,4-furandiol] (4:1)]	–	–	–	selectivity for A2A than A1 [1]: greater than 100 fold; selectivity for A2A than A3 [2]: greater than 100 fold; selectivity for A2A than A2B [3]: greater than 100 fold; dose giving a 20% increase in blood pressure and heart rate (ED20) [4]: about 7 μg/kg; binding to HSA (HSA; immobilised HSA HPLC column, pH 7.4): greater than 90%; reduction in neutrophil accumulation (neutrophil accumulation): greater than 50%
O=C1CN=C(c2ccccn2)c2cc(Br)ccc2N1 [Bromazepam]	0.38	71.2	0.17	–
